From patent publication US9695155B2, “Herbicidal substituted pyrimidinyloxy benzene compounds” (E. I. DU PONT DE NEMOURS AND COMPANY, priority 2013, dated 2017)

Key:
giant foxtail [1] = assay: Test A preemergence; format: in vivo, Setaria faberii; conditions: for Foxtail, Giant plant response rating (0 to 100 scale): 125 g ai/ha
Outline: (§1)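 Visual injury scored 0–100 (100 = complete control) against untreated controls about 10 days after treatment in a greenhouse. Test chemicals, formulated with surfactant in non-phytotoxic solvent, were sprayed on soil preemergence or on 2-10 cm, one- to two-leaf plants postemergence.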

velvetleaf [2] = assay: Test A preemergence; format: in vivo, Abutilon theophrasti; conditions: for Velvetleaf plant response rating (0 to 100 scale): 125 g ai/ha
Outline: as §1

wheat [3] = assay: Test A postemergence; format: in vivo, Triticum aestivum; conditions: for Wheat plant response rating: 125 g ai/ha
Outline: as §1

Heteranthera limosa = assay: Test B flooded paddy test; format: in vivo; conditions: Flood, 250 g ai/ha; 0 to 100 scale where 0 is no effect and 100 is complete control
Outline: (§2)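 Visual ratings on a 0 to 100 scale, where 100 means complete control, compared treated plants with controls after 13 to 15 days in a greenhouse. Treatment went into paddy water 3 cm deep over the soil, applied to plants at the 2-leaf stage.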

wheat [4] = assay: Test A preemergence; format: in vivo, Triticum aestivum; conditions: for Wheat plant response rating (0 to 100 scale): 125 g ai/ha
Outline: as §1

large (Lg) crabgrass [5] = assay: Test A preemergence; format: in vivo, Digitaria sanguinalis; conditions: for Crabgrass, Large plant response rating (0 to 100 scale): 125 g ai/ha
Outline: as §1

pigweed [6] = assay: Test A preemergence; format: in vivo, Amaranthus retroflexus; conditions: for Pigweed plant response rating (0 to 100 scale): 125 g ai/ha
Outline: as §1

sedge, umbrella = assay: Test B flooded paddy test; format: in vivo, Cyperus difformis; conditions: Flood, 250 g ai/ha; 0 to 100 scale where 0 is no effect and 100 is complete control
Outline: as §2

barnyardgrass [7] = assay: Test A postemergence; format: in vivo, Echinochloa crus-galli; conditions: for Barnyardgrass plant response rating: 125 g ai/ha
Outline: as §1

barnyardgrass [8] = assay: Test B flooded paddy test; format: in vivo, Echinochloa crus-galli; conditions: Flood, 250 g ai/ha; 0 to 100 scale where 0 is no effect and 100 is complete control
Outline: as §2

velvetleaf [9] = assay: Test A postemergence; format: in vivo, Abutilon theophrasti; conditions: for Velvetleaf plant response rating: 125 g ai/ha
Outline: as §1

barnyardgrass [10] = assay: Test A preemergence; format: in vivo, Echinochloa crus-galli; conditions: for Barnyardgrass plant response rating (0 to 100 scale, 0 is no effect, 100 is complete control): 125 g ai/ha
Outline: as §1

pigweed [11] = assay: Test A postemergence; format: in vivo, Amaranthus retroflexus; conditions: for Pigweed plant response rating: 125 g ai/ha
Outline: as §1

large (Lg) crabgrass [12] = assay: Test A postemergence; format: in vivo, Digitaria sanguinalis; conditions: for Crabgrass, Large plant response rating: 125 g ai/ha
Outline: as §1

morningglory [13] = assay: Test A preemergence; format: in vivo, Ipomoea spp.; conditions: for Morningglory plant response rating (0 to 100 scale): 125 g ai/ha
Outline: as §1

corn [14] = assay: Test A postemergence; format: in vivo, Zea mays; conditions: for Corn plant response rating: 125 g ai/ha
Outline: as §1

rice = assay: Test B flooded paddy test; format: in vivo, Oryza sativa; conditions: Flood, 250 g ai/ha; 0 to 100 scale where 0 is no effect and 100 is complete control
Outline: as §2

corn [15] = assay: Test A preemergence; format: in vivo, Zea mays; conditions: for Corn plant response rating (0 to 100 scale): 125 g ai/ha
Outline: as §1

giant foxtail [16] = assay: Test A postemergence; format: in vivo, Setaria faberii; conditions: for Foxtail, Giant plant response rating: 125 g ai/ha
Outline: as §1

morningglory [17] = assay: Test A postemergence; format: in vivo, Ipomoea spp.; conditions: for Morningglory plant response rating: 125 g ai/ha
Outline: as §1

[18] = 500 g ai/ha, 0 to 100 scale where 0 is no effect and 100 is complete control
[19] = 0 to 100 scale where 0 is no effect and 100 is complete control
[20] = 1000 g ai/ha, 0 to 100 scale, 0 no effect, 100 complete control, approx. 10 days
[21] = 1000 g ai/ha, 0 to 100 scale, 0 no effect, 100 complete control

| SMILES | Foxtail, Giant plant response rating (0 to 100 scale) (giant foxtail [1]) | Foxtail, Giant plant response rating (giant foxtail [1]; [18]) | Velvetleaf plant response rating (0 to 100 scale) (velvetleaf [2]) | Velvetleaf plant response rating (velvetleaf [2]; [18]) | Wheat plant response rating (wheat [3]; [19]) | Plant response rating, Wheat (wheat [3]; [18]) | Plant response rating, Ducksalad (Heteranthera limosa) | Wheat plant response rating (0 to 100 scale) (wheat [4]) | Wheat plant response rating (wheat [4]; [18]) | Crabgrass, Large plant response rating (0 to 100 scale) (large (Lg) crabgrass [5]) | Crabgrass, Large plant response rating (large (Lg) crabgrass [5]; [18]) | Pigweed plant response rating (0 to 100 scale) (pigweed [6]) | Pigweed plant response rating (pigweed [6]; [18]) | Plant response rating, Sedge, Umbrella (sedge, umbrella) | Barnyardgrass plant response rating (barnyardgrass [7]; [19]) | Plant response rating, Barnyardgrass (barnyardgrass [7]; [18]) | Plant response rating, Barnyardgrass (barnyardgrass [8]) | Velvetleaf plant response rating (velvetleaf [9]; [19]) | Plant response rating, Velvetleaf (velvetleaf [9]; [18]) | Plant response rating, Rice (rice) | further results |
| --- | --- | --- | --- | --- | --- | --- | --- | --- | --- | --- | --- | --- | --- | --- | --- | --- | --- | --- | --- | --- | --- |
| N#Cc1ccc(Oc2ncc(Cl)cn2)c(-n2cc(Br)cn2)c1 [Compound 213] | 20 | 100 | 0 | 0 | 0 | 0 | 0 | 0 | 0 | 10 | 100 | 50 | 100 | 70 | 0 | 10 | 0 | 10 | 20 | 0 | Barnyardgrass plant response rating (0 to 100 scale, 0 is no effect, 100 is complete control) (barnyardgrass [10]): 0; Barnyardgrass plant response rating (barnyardgrass [10]; [18]): 10; Pigweed plant response rating (pigweed [11]; [19]): 100; Plant response rating, Pigweed (pigweed [11]; [18]): 100; Crabgrass, Large plant response rating (large (Lg) crabgrass [12]; [19]): 20; Plant response rating, Crabgrass, Large (large (Lg) crabgrass [12]; [18]): 70; Morningglory plant response rating (0 to 100 scale) (morningglory [13]): 0; Morningglory plant response rating (morningglory [13]; [18]): 10; Corn plant response rating (corn [14]; [19]): 0; Plant response rating, Corn (corn [14]; [18]): 30; Corn plant response rating (0 to 100 scale) (corn [15]): 0; Corn plant response rating (corn [15]; [18]): 0; Foxtail, Giant plant response rating (giant foxtail [16]; [19]): 10; Plant response rating, Foxtail, Giant (giant foxtail [16]; [18]): 30; Morningglory plant response rating (morningglory [17]; [19]): 20; Plant response rating, Morningglory (morningglory [17]; [18]): 30 |
| N#Cc1cnc(Oc2cccc(C#N)c2-n2cc(Br)cn2)nc1 [Compound 214] | 0 | 0 | 0 | 0 | 0 | 0 | 0 | 0 | 0 | 0 | 0 | 0 | 0 | 0 | 0 | 0 | 0 | 0 | 0 | 0 | Barnyardgrass plant response rating (0 to 100 scale, 0 is no effect, 100 is complete control) (barnyardgrass [10]): 0; Barnyardgrass plant response rating (barnyardgrass [10]; [18]): 0; Pigweed plant response rating (pigweed [11]; [19]): 0; Plant response rating, Pigweed (pigweed [11]; [18]): 0; Crabgrass, Large plant response rating (large (Lg) crabgrass [12]; [19]): 0; Plant response rating, Crabgrass, Large (large (Lg) crabgrass [12]; [18]): 0; Morningglory plant response rating (0 to 100 scale) (morningglory [13]): 0; Morningglory plant response rating (morningglory [13]; [18]): 0; Corn plant response rating (corn [14]; [19]): 0; Plant response rating, Corn (corn [14]; [18]): 0; Corn plant response rating (0 to 100 scale) (corn [15]): 0; Corn plant response rating (corn [15]; [18]): 0; Foxtail, Giant plant response rating (giant foxtail [16]; [19]): 0; Plant response rating, Foxtail, Giant (giant foxtail [16]; [18]): 0; Morningglory plant response rating (morningglory [17]; [19]): 0; Plant response rating, Morningglory (morningglory [17]; [18]): 0 |
| C#Cc1cnc(Oc2cccc(C#N)c2-n2cc(Br)cn2)nc1 [Compound 215] | 0 | 50 | 0 | 10 | 0 | 0 | 0 | 0 | 0 | 20 | 80 | 90 | 100 | 0 | 0 | 30 | 0 | 40 | 50 | 0 | Barnyardgrass plant response rating (0 to 100 scale, 0 is no effect, 100 is complete control) (barnyardgrass [10]): 0; Barnyardgrass plant response rating (barnyardgrass [10]; [18]): 10; Pigweed plant response rating (pigweed [11]; [19]): 70; Plant response rating, Pigweed (pigweed [11]; [18]): 80; Crabgrass, Large plant response rating (large (Lg) crabgrass [12]; [19]): 10; Plant response rating, Crabgrass, Large (large (Lg) crabgrass [12]; [18]): 30; Morningglory plant response rating (0 to 100 scale) (morningglory [13]): 0; Morningglory plant response rating (morningglory [13]; [18]): 0; Corn plant response rating (corn [14]; [19]): 0; Plant response rating, Corn (corn [14]; [18]): 20; Corn plant response rating (0 to 100 scale) (corn [15]): 0; Corn plant response rating (corn [15]; [18]): 0; Foxtail, Giant plant response rating (giant foxtail [16]; [19]): 0; Plant response rating, Foxtail, Giant (giant foxtail [16]; [18]): 10; Morningglory plant response rating (morningglory [17]; [19]): 10; Plant response rating, Morningglory (morningglory [17]; [18]): 10 |
| Clc1cnc(Oc2ccccc2-n2ccnn2)nc1 [Compound 217] |  |  |  |  |  |  | 0 |  |  |  |  |  |  | 0 |  |  | 0 |  |  | 0 | Foxtail, Giant plant response rating (giant foxtail [1]; [20]): 90; Velvetleaf plant response rating (velvetleaf [2]; [20]): 100; Plant response rating, Wheat (wheat [3]; [21]): 20; Wheat plant response rating (wheat [4]; [20]): 0; Crabgrass, Large plant response rating (large (Lg) crabgrass [5]; [20]): 100; Pigweed plant response rating (pigweed [6]; [20]): 100; Plant response rating, Barnyardgrass (barnyardgrass [7]; [21]): 30; Plant response rating, Velvetleaf (velvetleaf [9]; [21]): 100; Barnyardgrass plant response rating (barnyardgrass [10]; [20]): 70; Plant response rating, Pigweed (pigweed [11]; [21]): 100; Plant response rating, Crabgrass, Large (large (Lg) crabgrass [12]; [21]): 60; Morningglory plant response rating (morningglory [13]; [20]): 40; Plant response rating, Corn (corn [14]; [21]): 0; Corn plant response rating (corn [15]; [20]): 0; Plant response rating, Foxtail, Giant (giant foxtail [16]; [21]): 50; Plant response rating, Morningglory (morningglory [17]; [21]): 90 |
| COc1cnc(Oc2cccc(C#N)c2-n2cc(Br)cn2)nc1 [Compound 218] | 20 | 100 | 10 | 50 | 0 | 20 | 50 | 0 | 0 | 80 | 100 | 100 | 100 | 40 | 30 | 70 | 0 | 30 | 100 | 0 | Barnyardgrass plant response rating (0 to 100 scale, 0 is no effect, 100 is complete control) (barnyardgrass [10]): 10; Barnyardgrass plant response rating (barnyardgrass [10]; [18]): 70; Pigweed plant response rating (pigweed [11]; [19]): 90; Plant response rating, Pigweed (pigweed [11]; [18]): 100; Crabgrass, Large plant response rating (large (Lg) crabgrass [12]; [19]): 50; Plant response rating, Crabgrass, Large (large (Lg) crabgrass [12]; [18]): 70; Morningglory plant response rating (0 to 100 scale) (morningglory [13]): 0; Morningglory plant response rating (morningglory [13]; [18]): 10; Corn plant response rating (corn [14]; [19]): 0; Plant response rating, Corn (corn [14]; [18]): 40; Corn plant response rating (0 to 100 scale) (corn [15]): 0; Corn plant response rating (corn [15]; [18]): 0; Foxtail, Giant plant response rating (giant foxtail [16]; [19]): 20; Plant response rating, Foxtail, Giant (giant foxtail [16]; [18]): 70; Morningglory plant response rating (morningglory [17]; [19]): 70; Plant response rating, Morningglory (morningglory [17]; [18]): 90 |
